Results reported in a melting point compilation (Tetko et al.).

SMILES	melting point
Cc1cc(N)nn1C	49 to 51 °C
N#CCc1nc2cc(F)ccc2s1	133 to 135 °C
NCCn1ncc2ccccc2c1=O	87 to 89 °C
N#Cc1ncn(CC(=O)O)n1	96 to 98 °C
O=C(O)Cc1sc(-c2ccccc2)nc1-c1cccs1	117 to 119 °C
Cc1c(C)n(CCc2ccccn2)c2[nH]cnc(=N)c12	132 to 134 °C
O=C(O)c1cc(/C=C/c2ccc(OC(F)(F)F)cc2)nc2ccc(Br)cc12	311 to 313 °C
O=C(O)c1cccc(OCc2cccs2)c1	147 to 149 °C
CCOC(=O)c1c[nH]c2cc(F)c(F)c(F)c2c1=O	339 to 341 °C
COc1cc(C=O)c([N+](=O)[O-])cc1OCC(F)(F)F	150 to 152 °C
CCOC=C(C#N)C(=O)O	63 to 65 °C
CC(C)(C)OC(=O)N1CC[C@H](O)C1	60 to 62 °C
O=C(O)C1=CCCS1	126 to 128 °C
O=C(O)C=Cc1ccc(S(=O)(=O)Nc2cccc(C(F)(F)F)c2)cc1	224 to 226 °C
O=C(CCl)N1CCNC1=O	195 to 197 °C
CC(C)n1ncc2cc(S(N)(=O)=O)ccc21	168 to 170 °C
Fc1cccc(-c2noc(S)n2)c1	93 to 95 °C
O=S1(=O)CCNC2CCCCC21 (stereo not given)	75 to 77 °C
O=C(O)Cc1csc(-c2ccccc2Cl)n1	105 to 109 °C
O=C(O)c1cc(S(=O)(=O)N2CCCC2)c[nH]1	175 to 177 °C
CCOC(C)c1nc(CC(=O)O)cs1 (stereo not given)	91 to 93 °C
NS(=O)(=O)c1scnc1C(=O)O	205 to 207 °C
O=C(CCl)c1ccc(I)cc1	127 to 129 °C
COc1cc(NC(=O)OC(C)(C)C)c(Cl)cc1C(=O)O	155 to 157 °C

SMILES	melting point
Cc1c(C(=O)O)oc2c(Cl)cccc12	229 to 231 °C
O=C(O)c1cc(F)cc([N+](=O)[O-])c1Br	177 to 179 °C
CC(C)C(Br)C(N)=O (stereo not given)	131 to 133 °C
Cc1cc(Sc2nccn2C)ccc1N	101 to 103 °C
O=[N+]([O-])c1ccc2c(c1)S(=O)(=O)C=C2	179 to 181 °C
O=C(O)C=Cc1nc2ccccc2s1	222 to 224 °C
CCSc1ccc([N+](=O)[O-])cc1C(=O)O	189 to 191 °C
O=S(=O)(F)c1ccc2cn[nH]c2c1	219 to 221 °C
Cc1nn(Cc2c(Cl)cccc2Cl)c2sc(C(=O)O)cc12	282 to 284 °C
NC(=O)C1(N)CCOCC1	78 to 80 °C
CN[C@@H]1CN(C(=O)OC(C)(C)C)C[C@H]1O	89 to 91 °C
Cc1ccc(S(=O)(=O)NCC(=O)O)cc1C	123 to 125 °C
Cc1noc2nc(-c3cccs3)cc(C(=O)O)c12	138 to 140 °C
CCn1cc(N)c(=O)c(Br)c1	116 to 118 °C
C#CCNC(=O)Nc1cccc(C#N)c1	167 to 169 °C
Cc1cc(Br)cc2c(O)c(C#N)cnc12	349 to 351 °C
CNC(=O)COc1ccc(N)c(F)c1	81 to 83 °C
CC(C)Cn1c(S)nnc1N1CCOCC1	< 17 °C
CCC(=O)N1CCC(C(=O)O)C1 (stereo not given)	118 to 120 °C
COc1cc2ncc(C(=O)O)c(O)c2cc1OC	293 to 295 °C
O=C(O)CCc1cc(Cl)ccc1Br	83 to 85 °C
FC(F)(F)c1cnc(-n2cccn2)c(Cl)c1	50 to 52 °C
CCc1nc(N)nc(SC)n1	143 to 145 °C
Cn1c(-c2ccccc2)c(C=O)c2ccccc21	125 to 127 °C

SMILES	melting point
COCCCOc1cc(C)ccc1C#N	67 to 69 °C
NS(=O)(=O)CC1CC1	45 to 47 °C
Cc1nn(-c2ccc(F)cc2F)c(C)c1C(=O)O	229 to 231 °C
CC(C)(C)OC(=O)N1CCC(OCC(F)(F)F)(C(=O)O)CC1	259 to 261 °C
Cc1c(C(=O)O)cnn1C(C)C	142 to 144 °C
Cc1c(C(=O)O)cc(Br)cc1S(N)(=O)=O	213 to 215 °C
COc1cc(CCl)ccc1[N+](=O)[O-]	49 to 51 °C
NS(=O)(=O)Cc1ccc([N+](=O)[O-])cc1Br	200 to 202 °C
CCN1C(=O)NC(C)C1=O (stereo not given)	51 to 53 °C
BrCCC12CC3CC(CC(C3)C1)C2	56 to 58 °C
O=C(O)c1ccc(S(=O)(=O)Cl)cc1Cl	133 to 135 °C
Nc1cc(C(=O)O)nc2ccccc12	276 to 278 °C
O=C1CC(C(F)F)=NN1	149 to 151 °C
NC(=O)c1cnc(Cl)cn1	166 to 168 °C
Cc1ccc(NCCC(=O)O)cc1Cl	80 to 82 °C
Cc1cc(C)n(C(C)C(=O)Nc2ccc(N)cc2Cl)n1 (stereo not given)	198 to 200 °C
O=C(NC(Cc1ccccc1)C(=O)O)c1cccnc1 (stereo not given)	206 to 208 °C
CC(C)(C)c1noc(-c2ccccc2C(=O)O)n1	100 to 102 °C
CCOc1ccc(C(C)(C)C(=O)O)cc1OCC	74 to 76 °C
CC(C)(C)NS(=O)(=O)c1cc(N)ccc1F	138 to 140 °C
Cc1cc(NN)nc2ccccc12	146 to 148 °C
O=C1CC2(Cc3ccccc3C2)C(=O)N1	173 to 175 °C
Nc1nc2ccc(S(N)(=O)=O)cc2s1	259 to 261 °C
c1ccc(-c2nnc3n2CCNC3)cc1	159 to 161 °C

SMILES	melting point
Sc1nnc(-c2ccncc2)o1	270 to 275 °C
O=C(CCCl)NCCc1ccccc1	56 to 58 °C
N#CCCC(=O)c1ccco1	80 to 84 °C
N#CCc1ccnc(N)c1	104 to 106 °C
CC(O)c1ncc(Cl)n1C (stereo not given)	113 to 115 °C
Nn1c(S)nnc1-c1ccco1	207 to 209 °C
O=S(=O)(Cl)c1ccc2oc3ccccc3c2c1	134 to 136 °C
COC(=O)c1c[nH]cc1-c1ccc([N+](=O)[O-])cc1	244 to 246 °C
CC(C)(C)OC(=O)N1CCNC(C#N)C1 (stereo not given)	109 to 111 °C
O=C(O)Cn1c(-c2ccccc2Cl)nc2ccccc21	276 to 278 °C
COc1ccc2nc(C)cc(Cl)c2c1	99 to 101 °C
C=CCNS(=O)(=O)C(C)(C)C	53 to 55 °C
O=C1CCc2c1ccc(Cl)c2Cl	82 to 84 °C
Cc1ccc(-c2nc(C(=O)O)cs2)n1C	139 to 141 °C
Cc1noc(N)c1S(N)(=O)=O	131 to 133 °C
O=C(O)CCC1NC(=O)N(c2ccc(F)cc2F)C1=O (stereo not given)	183 to 185 °C
c1cc2[nH]ccc2cn1	107 to 109 °C
ClCCc1nnnn1-c1ccccc1	45 to 47 °C
CC1Oc2ccc(Br)cc2NC1=O (stereo not given)	189 to 191 °C
Cc1ccc(C)c(S(=O)(=O)N2CCNCC2)c1	108 to 110 °C
NNc1nc2cc(F)c(F)cc2[nH]1	221 to 223 °C
COc1ccc(Cl)cc1-n1cc(S(=O)(=O)Cl)cn1	89 to 91 °C

Further lines, results first:

melting point	SMILES
120 to 122 °C	C=CC(=O)ON=C(N)c1ccc(Cl)cc1
71 to 73 °C	CSc1ccc(C(C)=O)cc1F
76 to 78 °C	OCC#Cc1ccc(Cl)cc1
122 to 124 °C	CC(C)(C(N)=O)c1ccc(N)cc1
149 to 151 °C	CC1CCCCN1S(=O)(=O)c1cccc(C(=O)O)c1 (stereo not given)
143 to 145 °C	Cc1ccc(-c2noc(CCC(=O)O)n2)cc1
153 to 157 °C	Cn1cnnc1Sc1ccc(N)cc1
202 to 204 °C	Cn1c(=O)n(CC(=O)O)c2ccccc21
143 to 145 °C	CCOc1ccc(C(=O)N2CCCCC2)cc1N
76 to 78 °C	CC(CC(=O)O)c1ccccc1C(F)(F)F (stereo not given)
109 to 111 °C	CN(C)c1ccc(C#N)c(N)c1
179 to 181 °C	COCCOc1cc(C(=O)O)nc2ccccc12
96 to 98 °C	O=C1NCC2(CCCCC2)O1
147 to 149 °C	O=C(O)C1CCCN1C(=O)Cc1ccccc1 (stereo not given)
141 to 143 °C	NCc1ccccc1CN1C(=O)NC2(CCCCC2)C1=O
185 to 187 °C	Nc1ccc(C(=O)N2CCc3ccccc32)cc1
141 to 150 °C	COC(=O)C(=O)CC(=O)c1ccc(OC)c(OC)c1
157 to 159 °C	CNc1ccc(-c2ccccc2)nn1
64 to 66 °C	O=C(O)CSc1ccc2c(c1)CCC2
136 to 138 °C	OC1CN(c2ccc(C(F)(F)F)cn2)C1
162 to 164 °C	CCCCOc1ccc(C(N)=O)cc1
49 to 51 °C	CCOc1ccc2ccccc2c1CO
180 to 185 °C	CC(=O)c1ccc2c(c1)Nc1ccccc1S2
168 to 170 °C	Cc1cccc(NC(=O)Nc2cccc3c2NCCC3)c1
133 to 135 °C	COc1ccc(NC(=O)C(C)Cl)cc1 (stereo not given)
126 to 128 °C	CN1C(=O)CC(C(=O)O)C1c1ccccc1 (stereo not given)

melting point	SMILES
74 to 76 °C	O=C(c1ccc(Cl)c(Cl)c1)N1CCNCC1
133 to 135 °C	O=C(CCl)c1ccc2c(c1)-c1ccccc1C2
34 to 36 °C	CCOC(=O)Cn1ncc2ccccc21
256 to 258 °C	CC1CCN(Cc2nc3sc4c(c3c(=O)[nH]2)CCC4)CC1
105 to 107 °C	Nc1ccc(Cl)cc1C(O)c1ccccc1 (stereo not given)
189 to 191 °C	NC(=O)c1cccc(F)c1I
173 to 175 °C	O=C(O)CCc1ccc(S(=O)(=O)NC2CC2)cc1
149 to 151 °C	NC(=O)c1ccn(-c2ccccc2)n1
80 to 82 °C	NC1CCN(c2ccc(Cl)cc2)C1=O (stereo not given)
99 to 101 °C	O=C(O)C(F)(F)c1ccc(F)cc1
170 to 172 °C	CC(=O)c1ccc2cc(O)ccc2c1
210 to 212 °C	O=C(O)Cn1nnc2ccccc21
136 to 138 °C	Cc1cccnc1NC(=O)C1CCNCC1
152 to 154 °C	CNC(=O)c1ccn(-c2ccc(N)cc2)n1
138 to 140 °C	Oc1nnc(-c2ccccc2)o1
106 to 108 °C	Nc1ccc(S(=O)(=O)CCO)cc1
149 to 151 °C	CC1C(=O)NCCN1C(=O)c1ccc(Cl)s1 (stereo not given)
145 to 147 °C	N#Cc1ccccc1OCc1ccc(C(=O)O)o1
201 to 203 °C	NC(=O)c1c[nH]c2ccccc12
218 to 220 °C	Cc1c(C2CC2)nc2ccc(Br)cc2c1C(=O)O
122 to 124 °C	CN(c1ccc(C(=N)N)cc1)C1CCCCC1
169 to 171 °C	CC(C)CC(=O)N1Cc2ccccc2CC1C(=O)O (stereo not given)
58 to 60 °C	O=C(O)CC1CCc2ccccc21 (stereo not given)
107 to 109 °C	O=C(NO)C1CCCC1
158 to 160 °C	O=C(O)CCCNc1ccc([N+](=O)[O-])cc1
